We go through 8 compounds from patent publication US7745139B1, “Peptides of the AT1 receptor and their uses” (Max-Delbrück-Centrum für Molekulare Medizin, priority 1998, dated 2010).

In one assay the target is T1, AT1 receptor (Rattus norvegicus, UniProt P25095).
T1 construct: endogenous in cells; host or cells: primary culture of spontaneously pulsing neonatal rat cardiomyocytes
T1 sequence (P25095 1-359): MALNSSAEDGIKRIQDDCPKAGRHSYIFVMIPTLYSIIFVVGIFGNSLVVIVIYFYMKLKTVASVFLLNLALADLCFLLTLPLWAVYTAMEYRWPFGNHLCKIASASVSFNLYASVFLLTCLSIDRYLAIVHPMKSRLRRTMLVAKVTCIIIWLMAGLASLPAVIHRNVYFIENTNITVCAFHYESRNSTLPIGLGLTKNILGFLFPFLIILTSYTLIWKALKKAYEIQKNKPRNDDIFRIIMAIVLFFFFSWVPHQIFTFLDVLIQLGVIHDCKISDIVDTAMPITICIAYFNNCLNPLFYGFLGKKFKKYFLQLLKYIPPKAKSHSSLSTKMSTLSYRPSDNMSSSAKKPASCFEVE
The assay can be described thus: Bioassay: beat frequency of spontaneously pulsing cultivated neo-natal rat heart cells (cardiomyocytes). The class given is cell-based. The conditions noted are these: for Influence on the positively chronotropic effect of angiotensin II: cells stimulated with angiotensin II; for Influence of receptor blockers on the positively chronotropic effect of the auto-antibodies: cells stimulated with anti-AT1 receptor auto-antibody. An excerpt:
The bio-assay entails • spontaneously pulsing neo-natal cardiomyocytes in primary culture or • cardiomyocytes differentiated from undifferentiated embryonal stem cells • in one culture medium
(§1) Cultivated neo-natal rat heart cells were used as a bioassay.
To identify and characterise the AT1 receptor antibodies, a sensitive bioassay was used. […] In order to identify the epitopes of the auto-antibodies on the second extra-cellular loops of the angiotensin II AT1 receptor, an attempt was made to neutralise the anti-AT1 receptor auto-antibodies with short overlapping peptides. […] I.

Assay [1] concerns anti-AT1 receptor auto-antibodies. The assay can be described thus: Neutralisation of patients' antibodies by pre-treatment with AT1 receptor peptides, read out in the cardiomyocyte bioassay. It counts as cell-based, human. To be noted: for Patients' antibodies, pre-treated with peptide (beat frequency bioassay): antibody 1:40 + peptide; for Annulment of the effect of the antibody by epitope peptides: antibodies of hypertension sufferers; for Neutralisation/inhibition of the agonistic effect of the auto-antibodies on the cells: antibodies of preeclampsia patients.
From the text: as §1
To identify and characterise the AT1 receptor antibodies, a sensitive bioassay was used. […] Further, this agonistic effect was neutralised by a peptide corresponding to the second extra-cellular loop of the AT1 receptor. In order to identify the epitopes of the auto-antibodies on the second extra-cellular loops of the angiotensin II AT1 receptor, an attempt was made to neutralise the anti-AT1 receptor auto-antibodies with short overlapping peptides. […] These were the epitopes ENTNIT and AFHYESQ. In preeclampsia patients, the agonistic effect of the antibodies achieved via the AT1 receptor was only neutralised by the peptide AFHYESQ. This epitope has a special importance in this disease, as it was identified in all the patients examined. […] I.

“Also recorded” adds a separate entry of the source.

On to `CCCCc1nc(Cl)c(CO)n1Cc1ccc(-c2ccccc2-c2nn[nH]n2)cc1` [Losartan], for which the “Influence on the positively chronotropic effect of angiotensin II” value on AT1 receptor is “blocked”; on AT1 receptor (listed as Losastan), “inhibited”. In addition, the entries for the “Influence of receptor blockers on the positively chronotropic effect of the auto-antibodies” value on AT1 receptor and at AT1 receptor (listed as Losastan) were “stopped” and “inhibited”, respectively.

For `Cc1cc(Cn2cnc3c2C[C@@H](C(=O)O)N(C(=O)C(c2ccccc2)c2ccccc2)C3)ccc1N(C)C` [PD 123319], the “Influence of receptor blockers on the positively chronotropic effect of the auto-antibodies” value at AT1 receptor is “no influence”.

Turning to AFHYESQ, the “Patients' antibodies, pre-treated with peptide (beat frequency bioassay)” value (from here on “Patients' antibodies, pre-treated”) in assay [1] (Patient No. 1) is on record as 1.2 ± 0.84. Further, the “Patients' antibodies, pre-treated” value in assay [1] (Patient No. 2) is 1.6 ± 1.24. Moreover, in assay [1], the “Annulment of the effect of the antibody by epitope peptides” value is on record as “annul the effect of the antibody” and the “Neutralisation/inhibition of the agonistic effect of the auto-antibodies on the cells” value (“Neutralisation/inhibition” below) is reported as “inhibits the effect; also recorded: neutralised”.

As for ENTNIT, the “Annulment of the effect of the antibody by epitope peptides” value in assay [1] is “annul the effect of the antibody”.

In the case of GYYFDTN [function-analog peptide], the “Patients' antibodies, pre-treated” value came out at 2.4 ± 0.72 in assay [1] (Patient No. 1) and 2.8 ± 1.20 in assay [1] (Patient No. 2). In assay [1], the “Neutralisation/inhibition” value was “neutralise the antibodies”.

Turning to SHFYQTR [function-analog peptide], the “Patients' antibodies, pre-treated” value in assay [1] (Patient No. 1) came to 0.8 ± 1.16; in assay [1] (Patient No. 2) it was 0.8 ± 0.80. The “Neutralisation/inhibition” value in assay [1] is recorded as “neutralise the antibodies”.

Take angiotensin II [angiotensin-II]: the “Chronotropic effect on cardiomyocytes (beat frequency / pulsation rate)” value at AT1 receptor (agonist alone) was “increase of the beat frequency”.

For the compound “loop II peptides: peptides portraying the part of the AT1 receptor corresponding to loop II (IHRNVFFIENTNITVCAFHYESQNSTL)”, the results for the “Neutralisation/inhibition” value in assay [1] and in assay [1] (listed as peptide corresponding to the second extra-cellular loop of the AT1 receptor) were “inhibit the antibody effect” and “neutralised”, respectively.
